Measured values taken from PubChem BioAssay AID1259407 (Chemical Carcinogenesis Research Information System (CCRIS), 2018).
Activity calls are given as the source filed them. How the calls were made is not given here.

System: CCRIS mutagenicity, Ames/micronucleus/aberration tests
Assay: CCRIS mutagenicity studies
[1] = End Point: IN VITRO CHROMOSOMAL ABERRATIONS, Test System: CHINESE HAMSTER OVARY CELLS, Metabolic Activation: RAT, LIVER, S-9, AROCLOR 1254
[2] = Test System: AMES SALMONELLA TYPHIMURIUM, Strain/Indicator: TA98, Metabolic Activation: NONE, Method: PREINCUBATION
[3] = Test System: AMES SALMONELLA TYPHIMURIUM, Strain/Indicator: TA98, Metabolic Activation: RAT, LIVER, S-9, AROCLOR 1254, Method: PREINCUBATION
[4] = Test System: AMES SALMONELLA TYPHIMURIUM, Strain/Indicator: TA100, Metabolic Activation: NONE, Method: PREINCUBATION
[5] = Test System: AMES SALMONELLA TYPHIMURIUM, Strain/Indicator: TA100, Metabolic Activation: RAT, LIVER, S-9, AROCLOR 1254, Method: PREINCUBATION

Clc1cc2c(cc1Cl)Oc1cc(Cl)c(Cl)cc1O2
mutagenic call (End Point: IN VITRO CHROMOSOMAL ABERRATIONS, Test System: CHINESE HAMSTER OVARY CELLS, Metabolic Activation: NONE): inactive; negative | mutagenic call [1]: inactive; negative | mutagenic call (Test System: AMES SALMONELLA TYPHIMURIUM, Strain/Indicator: TA97, Metabolic Activation: NONE, Method: PREINCUBATION): inactive; negative | mutagenic call (Test System: AMES SALMONELLA TYPHIMURIUM, Strain/Indicator: TA97, Metabolic Activation: RAT, LIVER, S-9, AROCLOR 1254, Method: PREINCUBATION): inactive; negative | mutagenic call [2]: inactive; negative | mutagenic call [3]: inactive; negative | mutagenic call [4]: inactive; negative | mutagenic call [5]: inactive; negative | mutagenic call (Test System: Ames Salmonella typhimurium, Strain/Indicator: TA98, Metabolic Activation: Hamster, Liver, S-9, Aroclor 1254, Method: Preincubation): inactive; negative | mutagenic call (Test System: Ames Salmonella typhimurium, Strain/Indicator: TA98, Metabolic Activation: None, Method: Preincubation): inactive; negative | mutagenic call (Test System: Ames Salmonella typhimurium, Strain/Indicator: TA98, Metabolic Activation: Rat, Liver, S-9, Aroclor 1254, Method: Preincubation): inactive; negative | mutagenic call (Test System: Ames Salmonella typhimurium, Strain/Indicator: TA100, Metabolic Activation: Hamster, Liver, S-9, Aroclor 1254, Method: Preincubation): inactive; negative | mutagenic call (Test System: Ames Salmonella typhimurium, Strain/Indicator: TA100, Metabolic Activation: None, Method: Preincubation): inactive; negative | mutagenic call (Test System: Ames Salmonella typhimurium, Strain/Indicator: TA100, Metabolic Activation: Rat, Liver, S-9, Aroclor 1254, Method: Preincubation): inactive; negative | mutagenic call (Test System: Ames Salmonella typhimurium, Strain/Indicator: TA1535, Metabolic Activation: Hamster, Liver, S-9, Aroclor 1254, Method: Preincubation): inactive; negative | mutagenic call (Test System: Ames Salmonella typhimurium, Strain/Indicator: TA1535, Metabolic Activation: None, Method: Preincubation): inactive; negative | mutagenic call (Test System: Ames Salmonella typhimurium, Strain/Indicator: TA1535, Metabolic Activation: Rat, Liver, S-9, Aroclor 1254, Method: Preincubation): inactive; negative | mutagenic call (Test System: Ames Salmonella typhimurium, Strain/Indicator: TA1537, Metabolic Activation: Hamster, Liver, S-9, Aroclor 1254, Method: Preincubation): inactive; negative | mutagenic call (Test System: Ames Salmonella typhimurium, Strain/Indicator: TA1537, Metabolic Activation: None, Method: Preincubation): inactive; negative | mutagenic call (Test System: Ames Salmonella typhimurium, Strain/Indicator: TA1537, Metabolic Activation: Rat, Liver, S-9, Aroclor 1254, Method: Preincubation): inactive; negative | mutagenic call (Test System: MOUSE LYMPHOMA, Strain/Indicator: L5178Y (TK+/TK-), Metabolic Activation: NONE, Method: SUSPENSION/PLATE): inactive; negative | mutagenic call (Test System: MOUSE LYMPHOMA, Strain/Indicator: L5178Y (TK+/TK-), Metabolic Activation: RAT, LIVER, S-9, AROCLOR 1254, Method: SUSPENSION/PLATE): inactive; negative

FCC1CO1 (configuration not stated)
mutagenic call (Test System: AMES SALMONELLA TYPHIMURIUM, Strain/Indicator: TA98, Metabolic Activation: HAMSTER, LIVER, S-9, AROCLOR 1254 (30%), Method: PREINCUBATION): inactive; negative | mutagenic call [2]: inactive; negative | mutagenic call (Test System: AMES SALMONELLA TYPHIMURIUM, Strain/Indicator: TA98, Metabolic Activation: RAT, LIVER, S-9, AROCLOR 1254 (30%), Method: PREINCUBATION): inactive; negative | mutagenic call (Test System: AMES SALMONELLA TYPHIMURIUM, Strain/Indicator: TA100, Metabolic Activation: HAMSTER, LIVER, S-9, AROCLOR 1254 (30%), Method: PREINCUBATION): active; positive | mutagenic call [4]: active; positive | mutagenic call (Test System: AMES SALMONELLA TYPHIMURIUM, Strain/Indicator: TA100, Metabolic Activation: RAT, LIVER, S-9, AROCLOR 1254 (30%), Method: PREINCUBATION): active; positive

ClC(Cl)(Cl)C(Cl)(Cl)Cl
mutagenic call [1]: inactive; negative; precipitation occurred at all doses | mutagenic call (Test System: AMES SALMONELLA TYPHIMURIUM, Strain/Indicator: TA98, Metabolic Activation: HAMSTER, LIVER, S-9, AROCLOR 1254, Method: PREINCUBATION): inactive; negative | mutagenic call [2]: inactive; negative | mutagenic call [3]: inactive; negative | mutagenic call (Test System: AMES SALMONELLA TYPHIMURIUM, Strain/Indicator: TA100, Metabolic Activation: HAMSTER, LIVER, S-9, AROCLOR 1254, Method: PREINCUBATION): inactive; negative | mutagenic call [4]: inactive; negative | mutagenic call [5]: inactive; negative | mutagenic call (Test System: AMES SALMONELLA TYPHIMURIUM, Strain/Indicator: TA1535, Metabolic Activation: HAMSTER, LIVER, S-9, AROCLOR 1254, Method: PREINCUBATION): inactive; negative | mutagenic call (Test System: AMES SALMONELLA TYPHIMURIUM, Strain/Indicator: TA1535, Metabolic Activation: NONE, Method: PREINCUBATION): inactive; negative | mutagenic call (Test System: AMES SALMONELLA TYPHIMURIUM, Strain/Indicator: TA1535, Metabolic Activation: RAT, LIVER, S-9, AROCLOR 1254, Method: PREINCUBATION): inactive; negative | mutagenic call (Test System: AMES SALMONELLA TYPHIMURIUM, Strain/Indicator: TA1537, Metabolic Activation: HAMSTER, LIVER, S-9, AROCLOR 1254, Method: PREINCUBATION): inactive; negative | mutagenic call (Test System: AMES SALMONELLA TYPHIMURIUM, Strain/Indicator: TA1537, Metabolic Activation: NONE, Method: PREINCUBATION): inactive; negative | mutagenic call (Test System: AMES SALMONELLA TYPHIMURIUM, Strain/Indicator: TA1537, Metabolic Activation: RAT, LIVER, S-9, AROCLOR 1254, Method: PREINCUBATION): inactive; negative

CC(O)/C=C/C=O (configuration not stated)
mutagenic call (Test System: AMES SALMONELLA TYPHIMURIUM, Strain/Indicator: TA104, Metabolic Activation: NONE, Method: PREINCUBATION): active; positive

O=Nc1ccc(Sc2ccccc2)cc1
mutagenic call (Test System: AMES SALMONELLA TYPHIMURIUM, Strain/Indicator: TA98(NR), Metabolic Activation: NONE, Method: STANDARD PLATE): active; positive | mutagenic call (Test System: AMES SALMONELLA TYPHIMURIUM, Strain/Indicator: TA98, Metabolic Activation: NONE, Method: STANDARD PLATE): active; positive | mutagenic call (Test System: AMES SALMONELLA TYPHIMURIUM, Strain/Indicator: TA98, Metabolic Activation: RAT, LIVER, S-9, AROCLOR 1254, Method: STANDARD PLATE): active; positive

O=CN(O)c1ccc(Oc2ccccc2)cc1
mutagenic call (Test System: AMES SALMONELLA TYPHIMURIUM, Strain/Indicator: TA100, Metabolic Activation: NONE, Method: STANDARD PLATE): inactive; negative | mutagenic call (Test System: AMES SALMONELLA TYPHIMURIUM, Strain/Indicator: TA100, Metabolic Activation: RAT, LIVER, S-9, KANECLOR 500, Method: STANDARD PLATE): active; positive
